This note sets out measurements from patent publication US6514486B1, “Composition for topical application comprising at least one iminophenol compound” (L'Oreal, priority 1997, dated 2003).

Molecules are shown by their SMILES.

The subject of the assay is coculture of keratinocytes and of melanocytes. Description: depigmenting activity test: inhibition of melanogenesis on a coculture of keratinocytes and of melanocytes. The format is cell-based. As to conditions: for Category (maximum depigmenting activity): inhibition of melanogenesis with respect to the control; for IC50: coculture of keratinocytes and melanocytes, read-out: IC50 (concentration at which 50% inhibition of melanogenesis is observed). As to the method: This test corresponds to that described in Patent FR 2,734,825, filed by the Applicant Company, and in the article by R. Schmidt, P. Krien and M. Régnier, Anal. Biochem., 235(2), 113-18 (1996). This test is thus carried out on a coculture of keratinocytes and of melanocytes.
The IC50 value, which corresponds to the micromolar concentration (μM) at which 50% inhibition of melanogenesis is observed, is determined for each compound tested.
Furthermore, a category is given to each of these compounds for their maximum depigmenting activity:
category 1: 10 to 30% inhibition of melanogenesis with respect to the control (same experiment without compound to be tested);
category 2: 30 to 60% inhibition of melanogenesis with respect to the control (same experiment without compound to be tested);
category 3: 60 to 100% inhibition of melanogenesis with respect to the control (same experiment without compound to be tested).

For the compound `O=c1cc(CO)occ1O` [Kojic acid], the IC50 is 500 µM. In addition, the “Category (maximum depigmenting activity)” value (at 500 μM) is reported as 2 at 500 μM (category 2: 30 to 60% inhibition of melanogenesis with respect to the control).
As to `CN(C)C=Nc1ccc(O)cc1` [N′-(4-hydroxyphenyl)-N,N-dimethylformamidine], the IC50 came to 200 µM. Also, the “Category (maximum depigmenting activity)” value (at 50 μM) was 2 at 50 μM (category 2: 30 to 60% inhibition of melanogenesis with respect to the control).
